Tests used:
Assay type in all cases: functional, cell-based
Settings in all cases: C57BL/6, BMDC
[1] = Antiinflammatory activity in C57BL/6 mouse BMDC cells assessed as inhibition of LPS-induced IL-12 p40 production preincubated for 1 hr prior to LPS-stimulation measured after 18 hrs by ELISA
[2] = Antiinflammatory activity in C57BL/6 mouse BMDC cells assessed as inhibition of LPS-induced TNFalpha production preincubated for 1 hr prior to LPS-stimulation measured after 18 hrs by ELISA
[3] = Antiinflammatory activity in C57BL/6 mouse BMDC cells assessed as inhibition of LPS-induced IL-6 production preincubated for 1 hr prior to LPS-stimulation measured after 18 hrs by ELISA

Structure (SMILES) | IC50 [1] [µM] | IC50 [2] [µM] | IC50 [3] [µM]
CC(=O)[C@H]1CC[C@H]2[C@@H]3C[C@H](O[C@@H]4O[C@H](C)[C@@H](O)[C@H](O[C@@H]5OC[C@@H](O[C@@H]6O[C@H](CO)[C@H](O)[C@H](O)[C@H]6O[C@@H]6O[C@H](C)[C@H](O)[C@H](O[C@@H]7O[C@@H](CO)[C@H](O)[C@H]7O)[C@H]6O)[C@H](O)[C@H]5O[C@@H]5O[C@H](C)[C@@H](O)[C@H](O)[C@H]5O)[C@H]4O)[C@H]4C[C@@H](OS(=O)(=O)O)CC[C@]4(C)C3=CC[C@]12C | > 50 | > 50 | 30.5
CC(=O)CC(=O)C[C@@](C)(O)[C@H]1CC[C@H]2[C@@H]3C[C@H](O[C@@H]4O[C@H](CO)[C@@H](O)[C@H](O[C@@H]5O[C@H](C)[C@@H](O[C@@H]6O[C@H](C)[C@H](O)[C@H](O)[C@H]6O[C@@H]6O[C@H](C)[C@H](O)[C@H](O)[C@H]6O)[C@H](O)[C@H]5O[C@@H]5O[C@H](C)[C@@H](O)[C@H](O)[C@H]5O)[C@H]4O)[C@H]4C[C@@H](OS(=O)(=O)O)CC[C@]4(C)C3=CC[C@@]21C | 0.6 | 1.21 | 3.51
CC(C)=CC(=O)C[C@@H](C)[C@H]1CC[C@H]2[C@@H]3C[C@H](O[C@@H]4O[C@H](CO)[C@@H](O)[C@H](O[C@@H]5O[C@H](C)[C@@H](O[C@@H]6O[C@H](C)[C@H](O)[C@H](O)[C@H]6O[C@@H]6O[C@H](C)[C@H](O)[C@H](O)[C@H]6O)[C@H](O)[C@H]5O[C@@H]5O[C@H](C)[C@@H](O)[C@H](O)[C@H]5O)[C@H]4O)[C@H]4C[C@@H](OS(=O)(=O)O)CC[C@]4(C)C3=CC[C@]12C | > 50 | > 50 | 4.37
C[S+]([O-])c1ccc(-c2nc(-c3ccc(F)cc3)c(-c3ccncc3)[nH]2)cc1 (stereo unspecified) [SB-203580] | 5 | 7.5 | 3.5

Next, values leading:

IC50 [1] [µM] | IC50 [2] [µM] | IC50 [3] [µM] | Structure (SMILES)
> 50 | > 50 | 3.17 | C/C(=C\C(=O)CC(C)C)[C@H]1CC[C@H]2[C@@H]3C[C@H](O[C@@H]4O[C@H](C)[C@@H](O)[C@H](O[C@@H]5OC[C@@H](O[C@@H]6O[C@H](CO)[C@H](O)[C@H](O)[C@H]6O[C@@H]6O[C@H](C)[C@H](O)[C@H](O[C@@H]7O[C@@H](CO)[C@H](O)[C@H]7O)[C@H]6O)[C@H](O)[C@H]5O[C@@H]5O[C@H](C)[C@@H](O)[C@H](O)[C@H]5O)[C@H]4O)[C@H]4C[C@@H](OS(=O)(=O)O)CC[C@]4(C)C3=CC[C@]12C
> 50 | > 50 | > 50 | CC(C)C[C@H](O)C[C@](C)(O)[C@H]1CC[C@H]2[C@@H]3C[C@H](O[C@@H]4O[C@H](C)[C@@H](O)[C@H](O[C@@H]5OC[C@@H](O[C@@H]6O[C@H](CO)[C@H](O)[C@H](O)[C@H]6O[C@@H]6O[C@H](C)[C@H](O)[C@H](O[C@@H]7O[C@@H](CO)[C@H](O)[C@H]7O)[C@H]6O)[C@H](O)[C@H]5O[C@@H]5O[C@H](C)[C@@H](O)[C@H](O)[C@H]5O)[C@H]4O)[C@H]4C[C@@H](OS(=O)(=O)O)CC[C@]4(C)C3=CC[C@@]21C
> 50 | > 50 | > 50 | CC(C)CC(=O)C[C@](C)(O)[C@H]1CC[C@H]2[C@@H]3C[C@H](O[C@@H]4O[C@H](C)[C@@H](O)[C@H](O[C@@H]5OC[C@@H](O[C@@H]6O[C@H](CO)[C@H](O)[C@H](O)[C@H]6O[C@@H]6O[C@H](C)[C@H](O)[C@H](O[C@@H]7O[C@@H](CO)[C@H](O)[C@H]7O)[C@H]6O)[C@H](O)[C@H]5O[C@@H]5O[C@H](C)[C@@H](O)[C@H](O)[C@H]5O)[C@H]4O)[C@H]4C[C@@H](OS(=O)(=O)O)CC[C@]4(C)C3=CC[C@@]21C [PSILASTEROSIDE]

From ChEMBL document CHEMBL2417453, “Anti-inflammatory asterosaponins from the starfish Astropecten monacanthus” (J Nat Prod, 2013)
